Measurements from patent US20180008587A1, “THIOHYDANTOIN ANDROGEN RECEPTOR ANTAGONISTS FOR THE TREATMENT OF CANCER” (Jaressen Pharmaceutica NV, priority 2016, published 2018).
Changes are numbered by the printed parent chain. Read-outs that look alike come from different tables or passages of the source.

How the values were obtained:
[1] = biological target: T1, wild-type Androgen Receptor (AR-wt) (Homo sapiens, UniProt P10275); assay: LNCaP-AR-wt AG reporter assay (ARE firefly luciferase, agonist mode); format: cell-based; conditions: for Emax: read-out: LNCaP-AR-wt AG MAX % Stim
T1 construct: expressed in transfected cells; host or cells: LNCaP (LNCaP AR (cs))
T1 sequence (P10275 1-920): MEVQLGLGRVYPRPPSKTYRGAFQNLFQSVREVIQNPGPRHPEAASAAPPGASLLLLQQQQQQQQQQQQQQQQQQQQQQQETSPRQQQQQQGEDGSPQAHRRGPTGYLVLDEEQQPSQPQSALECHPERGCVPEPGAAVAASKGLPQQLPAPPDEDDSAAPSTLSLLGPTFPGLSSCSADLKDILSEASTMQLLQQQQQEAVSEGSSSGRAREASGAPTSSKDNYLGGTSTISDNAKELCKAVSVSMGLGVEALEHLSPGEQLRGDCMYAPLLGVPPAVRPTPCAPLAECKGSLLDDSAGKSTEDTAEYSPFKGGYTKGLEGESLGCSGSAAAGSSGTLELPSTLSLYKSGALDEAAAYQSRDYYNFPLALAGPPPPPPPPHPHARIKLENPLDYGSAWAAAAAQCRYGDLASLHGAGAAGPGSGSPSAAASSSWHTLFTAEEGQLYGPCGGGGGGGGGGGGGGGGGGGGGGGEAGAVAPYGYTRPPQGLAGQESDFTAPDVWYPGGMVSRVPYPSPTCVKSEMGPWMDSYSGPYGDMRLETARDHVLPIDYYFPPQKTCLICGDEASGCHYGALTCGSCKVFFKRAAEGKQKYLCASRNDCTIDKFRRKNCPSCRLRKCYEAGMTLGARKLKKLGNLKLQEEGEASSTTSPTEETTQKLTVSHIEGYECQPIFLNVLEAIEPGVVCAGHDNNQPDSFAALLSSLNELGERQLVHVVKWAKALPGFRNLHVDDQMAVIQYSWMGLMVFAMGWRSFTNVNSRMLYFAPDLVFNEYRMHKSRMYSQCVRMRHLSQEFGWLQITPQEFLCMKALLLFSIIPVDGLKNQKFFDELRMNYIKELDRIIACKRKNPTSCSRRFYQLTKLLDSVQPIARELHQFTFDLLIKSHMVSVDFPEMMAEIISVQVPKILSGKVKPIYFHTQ
How it was run: (§1)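 Read-out is luciferase luminescence taken 1 h after Steady-Glo addition, following 20-24 h compound exposure at 37 °C in LNCaP pools stably carrying wild-type or F876L AR. Cells were grown in charcoal-stripped serum. Antagonist wells received agonist at 400 pM (WT) or 600 pM (F876L).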

[2] = biological target: T2, F876L mutant Androgen Receptor (AR-F876L) (Homo sapiens, UniProt P10275, F877L); assay: LNCaP-AR-F876L ANT reporter assay (ARE firefly luciferase, antagonist mode); format: cell-based; conditions: for Emax: read-out: LNCaP-AR-F876L ANT MAX % Inh; for IC50: read-out: LNCaP-AR-F876L ANT pIC50 (converted)
T2 construct: expressed in transfected cells; host or cells: LNCaP (LNCaP F876L)
T2 sequence (P10275 1-920 F877L): T1 sequence (P10275 1-920) with F877L
How it was run: as §1

F876L-VP16 = biological target: T3, F876L-VP16 (Homo sapiens, UniProt P10275, F877L); assay: AR-VP16 DNA binding assay, HepG2; format: cell-based; conditions: HepG2, antagonist mode, 1 nM R1881, 48 hours
T3 construct: VP16 (fusion partner); expressed in transfected cells; host or cells: HepG2
T3 sequence (P10275 1-920 F877L): T1 sequence (P10275 1-920) with F877L
Description: (§2) HepG2 cells were maintained in EMEM supplemented with 10% FBS. One day before transfection, the media was changed to EMEM with 10% CSS. […] Cells were then trypsinized, counted and resuspended at 500,000 cells/mL. For agonist mode, the compounds were serially diluted and 50 μL of the compound was added per well. 50 μL of the cells were added to each well and incubated for 48 hours. For antagonist mode, a final concentration of 90 pM (VP16 AR) or 1 nM (VP16 F876L) R1881 was added to the plate and incubated for 48 hours. The plates were then assayed using SteadyGlo and read on the Envision. Percent Stimulation and Inhibition were determined and analyzed using GraphPad Prism.

AR-VP16 = biological target: T4, AR-VP16 (Homo sapiens, UniProt P10275); assay: AR-VP16 DNA binding assay, HepG2; format: cell-based; conditions: HepG2, antagonist mode, 90 pM R1881, 48 hours; read-out: IC50 VP16 WT
T4 sequence (P10275 560-920 limits assumed): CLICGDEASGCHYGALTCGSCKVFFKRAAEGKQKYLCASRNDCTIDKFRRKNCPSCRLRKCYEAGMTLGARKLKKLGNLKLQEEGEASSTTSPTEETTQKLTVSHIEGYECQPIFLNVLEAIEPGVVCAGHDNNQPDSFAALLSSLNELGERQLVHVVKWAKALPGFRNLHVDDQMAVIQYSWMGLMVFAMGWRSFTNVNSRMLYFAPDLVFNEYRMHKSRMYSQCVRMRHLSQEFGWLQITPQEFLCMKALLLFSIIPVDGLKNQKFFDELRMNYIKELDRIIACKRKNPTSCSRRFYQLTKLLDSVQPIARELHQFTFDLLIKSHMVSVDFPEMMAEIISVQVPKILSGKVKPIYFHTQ
Description: as §2

[3] = biological target: T1, wild-type Androgen Receptor (AR-wt); assay: LNCaP-AR-wt ANT reporter assay (ARE firefly luciferase, antagonist mode); format: cell-based; conditions: for IC50: antagonist mode, 400 pM R-1881 challenge, −Log10(IC50 [Molar]), read-out: LNCaP-AR-wt ANT pIC50 (converted); for Emax: read-out: LNCaP-AR-wt ANT MAX % Inh
How it was run: as §1

[4] = biological target: T2, F876L mutant Androgen Receptor (AR-F876L); assay: LNCaP-AR-F876L AG reporter assay (ARE firefly luciferase, agonist mode); format: cell-based; conditions: for Emax: read-out: LNCaP-AR-F876L AG MAX % Stim
How it was run: as §1

T877A AR mutant = biological target: T5, T877A AR mutant (Homo sapiens, UniProt P10275, T878A); conditions: cited from earlier work
T5 sequence (P10275 1-920 T878A): T1 sequence (P10275 1-920) with T878A

[5] = system: androgen dependent signaling; assay: Hershberger assay; format: in vivo, rat; conditions: all 5 organs, p≦0.05
Description: The effect of AR antagonists on androgen dependent signaling in vivo was assessed using the Hershberger assay. In this assay, peripubertal castrated male Sprague-Dawley rats were administered AR antagonists described herein in the presence of testosterone (0.4 mg/kg testosterone propionate) and the weights of androgen dependent organs measured. Dosing was continued for 10 days and measurements taken 24 h after the last dose. The extent of antagonism of AR and consequent inhibition of organ growth was evaluated by comparison to the castration control. Compounds of Formula (I) were dosed orally QD and an endpoint assessment made by change in weight of 5 androgen sensitive organs (ASO): Paired Cowper's Glands (CG), Seminal Vesicles with Fluids and Coagulating Glands (SVCG), Glans Penis (GP), Ventral Prostate (VP) and Levator Ani-Bulbocavernosus Complex (LABC)). According to assay guidelines, statistically significant suppression of ASO is required in 2 of 5 organs for a compound to be classified as an anti-androgen (analysis was performed by t-test/Mann-Whitney).
Compounds defined herein were administered at the indicated dose (mg/kg) and flutamide (FT), positive control, at 3 mg/kg. All compounds were co-administered with testosterone propionate (TP, 0.4 mg/kg) which was also administered alone, untreated control, (castrated only rats served as the control for complete androgen blockade). A statistically significant change in ASO achieved in at least 2 of 5 organs was indicative of an active compound.

[6] = maximum % stimulation (agonist response) over tested concentration range
[7] = maximum % inhibition of R1881 control response over tested concentration range

| Compound | EC50 ([1]; agonist mode, −Log10(EC50 [Molar]), read-out: LNCaP-AR-wt AG pEC50 (converted)) [nM] | Emax [1, 6] [%] | Emax [2, 7] [%] | IC50 [2] [nM] | IC50 (F876L-VP16) [nM] | IC50 (AR-VP16) [nM] | IC50 [3] [nM] | Emax [3, 7] [%] | EC50 ([4]; agonist mode, −Log10(EC50 [Molar]), read-out: LNCaP-AR-F876L AG pEC50 (converted)) [nM] | Emax [4, 6] [%] | activity in T877A AR mutant (T877A AR mutant) | EC50 [1] [nM] | Emax [1] [%] | reduction in ASO versus TP control [5] | Emax [2] [%] | Emax [3] [%] | EC50 [4] [nM] | Emax [4] [%] |
| --- | --- | --- | --- | --- | --- | --- | --- | --- | --- | --- | --- | --- | --- | --- | --- | --- | --- | --- |
| Cc1cc(N2C(=O)C3(CCC3)N(c3ccc(OC4CCN(CCO)CC4)cc3)C2=S)cnc1C#N [Cpd 60, 5-[8-[4-[[1-(2-hydroxyethyl)-4-piperidyl]oxy]phenyl]-5-oxo-7-thioxo-6,8-diazaspiro[3.4]octan-6-yl]-3-methyl-pyridine-2-carbonitrile] | > 15100 | 1.1 | 99.3 | 525 | 746 | 2050 | 933 | 98.7 | > 15100 | 0.7 |  |  |  |  |  |  |  |  |
| CC(C)(O)C(=O)Nc1ccc([N+](=O)[O-])c(C(F)(F)F)c1 [hydroxyflutamide] |  |  |  |  |  |  |  |  |  |  | act as AR agonists |  |  |  |  |  |  |  |
| CN1CCN(CCCc2ccc(N3C(=S)N(c4cnc(C#N)c(C(F)(F)F)c4)C(=O)C34CCC4)cc2)CC1 [Cpd 43, 5-[8-[4-[3-(4-methylpiperazin-1-yl)propyl]phenyl]-5-oxo-7-thioxo-6,8-diazaspiro[3.4]octan-6-yl]-3-(trifluoromethyl)pyridine-2-carbonitrile] |  |  |  | 245 |  |  | 501 |  |  |  |  | > 15100 | 0.7 | significant reduction in ASO | 98.9 | 97.3 | > 15100 | 0.4 |
